The results in this text go back to ChEMBL document CHEMBL1156618, “Design, synthesis and in vitro antitumor activity of 4-aminoquinoline and 4-aminoquinazoline derivatives targeting EGFR tyrosine kinase” (Bioorg Med Chem, 2008).

What is called IC50 is the concentration that gives 50% inhibition.

The source made the active and inactive calls. The calls are words filed in the database; no cut-off is given here.

The assay concerns MCF7. Put plainly: Cytotoxicity against human MCF7 cells after 48 hrs by SRB assay. In kind it is functional, cell-based. A general note: In SRB staining, fixed cells bind dye roughly in proportion to their protein.
`CCOc1ccc2nc(C)cc(Nc3cccc(O)c3)c2c1` displayed an IC50 of 2.84 µM.

On to `CCOc1ccc2nc(C)cc(Nc3ccc(S(=O)(=O)Nc4cc(C)on4)cc3)c2c1`, for which the IC50 turned out to be 13.8 µM. This IC50 lies about 4.9-fold higher than the previous one. Same read-out and setting: the same measure for `CCOc1ccc2nc(C)cc(N3CCN(C(=O)c4ccco4)CC3)c2c1`: 4.31 µM; for `COc1cc2nc(Cl)nc(Nc3ccc(S(=O)(=O)Nc4nccs4)cc3)c2cc1OC`: 0.13 µM; for `CCOc1ccc2nc(C)cc(Nc3cc(OC)c(OC)cc3C(=O)OC)c2c1`: 1.67 µM. Turning to `CCOc1ccc2nc(C)cc(Nc3ccc(S(=O)(=O)Nc4nccs4)cc3)c2c1`, the outcome was inactive. `CCOc1ccc2nc(C)cc(Nc3ccc(Cl)cc3Cl)c2c1` gave a half-inhibitory concentration (IC50) of 4.38 µM. `CCOc1ccc2nc(C)cc(Nc3ccc(S(=O)(=O)Nc4ncccn4)cc3)c2c1`: the IC50 was 3.96 µM. The same measure, in the same setting: as for `COc1cc2nc(Cl)nc(N3CCN(S(=O)(=O)c4ccc(C)cc4)CC3)c2cc1OC`, the figure is 1.08 µM; as for `COc1cc2nc(Cl)nc(Nc3ccc(S(=O)(=O)Nc4cc(C)on4)cc3)c2cc1OC`, 1.98 µM.

`CCOc1ccc2nc(C)cc(Nc3ccc(S(=O)(=O)NC(=N)N)cc3)c2c1` showed an IC50 of 19.2 µM.
